Assay results reported in paper PMC5613053 (Investigational New Drugs, 2017).

Assays:
FLT3 = FLT3 (Homo sapiens, UniProt P36888); experiment: biochemical; conditions: read-out: Inhibition of kinase activity
Experimental: These assays were conducted according to the manufacturer’s instructions. […] TK-ELISA and MSA assays were used to conduct IC50 studies for FLT3, LTK, AXL, and c-KIT; the HTRF® KinEASE™-TK assay (Sceti Medical Labo, Tokyo, Japan) was performed according to the manufacturer’s protocol to assess the IC50 value of echinoderm microtubule-associated protein-like 4-ALK (EML4-ALK; three individual experiments for each kinase).

AXL = target: T1, AXL (Homo sapiens, UniProt P30530); experiment: Kinase inhibitory assay (TK-ELISA / off-chip MSA); type: biochemical; conditions: 1 nM; single experiment
T1 construct: purchased Carna Biosciences, Inc

c-KIT = target: T2, c-KIT (Homo sapiens, UniProt P10721); experiment: Kinase inhibitory assay (TK-ELISA / off-chip MSA); type: biochemical
T2 construct: purchased Carna Biosciences, Inc

[1] = system: Ba/F3 cells expressing FLT3-ITD-D835Y; experiment: cells; conditions: Mus musculus, BaF3, 48 h, read-out: Cell growth inhibition IC50
Experimental: (§1) A detailed protocol is provided in the online resource.
(§2) To examine the effect of ASP2215 on cell viability, MV4-11, MOLM-13, and Ba/F3 cells expressing either FLT3-ITD, FLT3-D835Y, FLT3-ITD-D835Y, FLT3-ITD-F691L or FLT3-ITD-F691I were seeded into 96-well white plates (Nunc F96 MicroWell™ Plates, white; Thermo Fisher Scientific Inc., Waltham, MA) at 1000 cells/well in Iscove’s Modified Dulbecco’s Medium, 500 cells/well in RPMI 1640 or 1000 cells/well in RPMI 1640, respectively. All cell lines were cultured overnight in a humidified incubator at 37°C with 5% CO2 in media supplemented with 10% heat-inactivated FBS.
(§3) After treatment, the CellTiter-Glo® Luminescent Cell Viability Assay (Promega) was used according to the manufacturer’s instructions and luminescence was measured using an ARVO-HTS plate reader (Perkin Elmer Inc., Waltham, MA). The assay was performed in either triplicate or quadruplicate. […] The geometric mean was calculated from three individual experiments.
(§4) The mutants of FLT3 (NM_004119), FLT3-D835Y (gat to tat), FLT3-ITD (insertion of […] at 1799 position of CDS), FLT3-ITD-F691I (ttt to att), FLT3-ITD-F691L (ttt to ctt), FLT3-ITD-D835Y were encoded into pMX-puro vector (Cell Biolabs, Inc., San Diego, CA), and transfected with FuGENE-HD (Promega) into Platinum-E cells. […]

[2] = system: Ba/F3 cells expressing FLT3-ITD; experiment: cells; conditions: Mus musculus, BaF3, 48 h, read-out: Cell growth inhibition IC50
Experimental: as §1, §2, §3, §4

[3] = system: Ba/F3 cells expressing FLT3-ITD-F691 L; experiment: CellTiter-Glo cell viability; type: cell-based; conditions: Mus musculus, BaF3, 48 h; 2 days of treatment; read-out: Cell growth inhibition IC50
Experimental: as §1, §2, §3, §4

[4] = system: Ba/F3 cells expressing FLT3-ITD-F691I; experiment: CellTiter-Glo cell viability; type: cell-based; conditions: Mus musculus, BaF3, 48 h; 2 days of treatment; read-out: Cell growth inhibition IC50
Experimental: as §1, §2, §3, §4

p-AKT = experiment: Immunoblot of downstream FLT3 targets in MV4-11 cells; type: cell-based; conditions: Homo sapiens
Experimental: (§5) FLT3 immunoprecipitation and immunoblotting for all targets were performed following standard protocols. Detailed methods are provided in the online resource.
(§6) Cells were treated for 2 h prior to cell lysate preparation in RIPA buffer supplemented with phosphatase / protease inhibitors. Following sample preparation, protein lysates were electrophoresed on 7.5% gels and transferred to PVDF membranes.
(§7) All membranes were blocked using either Blocking One or Blocking One-P (Nacalai Tesque Inc., Kyoto, Japan) for 1 h prior to an overnight incubation with primary antibody. Membranes were incubated overnight at 4°C with one of the following antibodies: anti-FLT3 antibody (Abcam), anti-phosphorylated pan-tyrosine, anti-ERK, anti-phospho-ERK, anti-STAT5, anti-phospho-STAT5, anti-AKT, anti-phospho-AKT, anti-AXL, anti-phospho-AXL, or anti-actin. The membranes were then washed with 1× TBS Tween-20 (TBS-T) Buffer (Thermo Fisher Scientific Inc., Rockford, IL) and incubated with an appropriate HRP-linked secondary antibody (Cell Signaling Technology) for 1 h at room temperature. After a final wash, ECL Western Blotting Detection Reagent ECL-prime (GE Healthcare, Fairfield, CT) were applied to the membranes and signals were detected with a CCD camera (ImageQuant LAS4000; GE Healthcare). Signal intensity was then quantified using ImageQuant™ TL software (GE Healthcare). The study was performed once in triplicate, and the mean percentage of phosphorylated protein to total protein relative to that in vehicle-treated cells was calculated.

p-ERK = experiment: as above; type: cell-based; conditions: Homo sapiens
Experimental: as §5, §6, §7

p-STAT5 = experiment: as above; type: cell-based; conditions: Homo sapiens
Experimental: as §5, §6, §7

MV4–11 tumors = experiment: MV4–11 subcutaneous xenograft antitumor activity; type: in vivo, mice; conditions: 28 days; for Mice with complete tumor regression: n = 6
Experimental: (§8) Once tumor growth had been confirmed, mice xenografted with MV4–11 cells were monitored for 28 days; mice xenografted with Ba/F3 cells expressing FLT3 mutations were monitored for 7 days. Tumor diameter was measured using a caliper, and tumor volume was determined by calculating the volume of an ellipsoid using the formula: length × width^2 × 0.5. Body weight was measured using a standard balance. Data are expressed as mean ± SEM from n = 6 mice/group (MV4–11) and n = 5 mice/group (Ba/F3).
(§9) After tumor establishment, mice were divided into groups such that the mean tumor volume was approximately equal in each group.

[5] = system: Ba/F3 cells expressing FLT3-ITD; experiment: Ba/F3 FLT3-ITD subcutaneous xenograft; type: in vivo, mice; conditions: up to 7 days
Experimental: as §8, §9

[6] = system: Ba/F3 cells expressing FLT3-D835Y; experiment: Ba/F3 FLT3-D835Y subcutaneous xenograft; type: in vivo, mice; conditions: up to 7 days
Experimental: as §8, §9

[7] = system: Ba/F3 cells expressing FLT3-ITD-D835Y; experiment: Ba/F3 FLT3-ITD-D835Y subcutaneous xenograft; type: in vivo, mice; conditions: up to 7 days
Experimental: as §8, §9

[8] = read-out: Kinase inhibition at the specified gilteritinib concentration (%), 0.1 nM, 2 h
[9] = read-out: Kinase inhibition at the specified gilteritinib concentration (%), 1 nM, 2 h
[10] = read-out: Kinase inhibition at the specified gilteritinib concentration (%), 10 nM, 2 h

Chain of FLT3 (P36888 27-993): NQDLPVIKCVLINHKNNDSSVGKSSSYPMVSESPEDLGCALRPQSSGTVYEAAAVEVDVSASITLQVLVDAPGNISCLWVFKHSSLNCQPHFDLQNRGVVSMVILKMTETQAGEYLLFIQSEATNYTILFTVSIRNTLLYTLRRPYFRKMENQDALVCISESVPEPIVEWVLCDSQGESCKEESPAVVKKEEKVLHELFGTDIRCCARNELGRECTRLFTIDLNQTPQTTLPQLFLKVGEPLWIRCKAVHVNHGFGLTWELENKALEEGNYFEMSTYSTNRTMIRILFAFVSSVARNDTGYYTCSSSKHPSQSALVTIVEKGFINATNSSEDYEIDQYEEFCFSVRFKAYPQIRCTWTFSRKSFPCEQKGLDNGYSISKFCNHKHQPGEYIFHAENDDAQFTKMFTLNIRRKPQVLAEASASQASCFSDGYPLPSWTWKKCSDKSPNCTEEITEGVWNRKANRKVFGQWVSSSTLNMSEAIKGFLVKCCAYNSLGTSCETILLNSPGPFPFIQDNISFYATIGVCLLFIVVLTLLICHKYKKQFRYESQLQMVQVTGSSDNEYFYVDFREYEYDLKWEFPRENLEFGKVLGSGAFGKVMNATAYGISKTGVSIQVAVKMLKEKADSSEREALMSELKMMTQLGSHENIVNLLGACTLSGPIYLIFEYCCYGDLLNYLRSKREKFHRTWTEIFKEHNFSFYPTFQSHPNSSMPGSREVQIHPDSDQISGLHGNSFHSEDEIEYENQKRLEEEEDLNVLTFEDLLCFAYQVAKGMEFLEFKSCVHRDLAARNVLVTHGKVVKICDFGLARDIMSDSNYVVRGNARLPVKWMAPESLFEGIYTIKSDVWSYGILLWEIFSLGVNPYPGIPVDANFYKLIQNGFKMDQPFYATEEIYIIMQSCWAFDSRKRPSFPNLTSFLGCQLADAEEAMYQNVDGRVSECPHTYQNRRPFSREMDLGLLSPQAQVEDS
T2 sequence (P10721 26-976): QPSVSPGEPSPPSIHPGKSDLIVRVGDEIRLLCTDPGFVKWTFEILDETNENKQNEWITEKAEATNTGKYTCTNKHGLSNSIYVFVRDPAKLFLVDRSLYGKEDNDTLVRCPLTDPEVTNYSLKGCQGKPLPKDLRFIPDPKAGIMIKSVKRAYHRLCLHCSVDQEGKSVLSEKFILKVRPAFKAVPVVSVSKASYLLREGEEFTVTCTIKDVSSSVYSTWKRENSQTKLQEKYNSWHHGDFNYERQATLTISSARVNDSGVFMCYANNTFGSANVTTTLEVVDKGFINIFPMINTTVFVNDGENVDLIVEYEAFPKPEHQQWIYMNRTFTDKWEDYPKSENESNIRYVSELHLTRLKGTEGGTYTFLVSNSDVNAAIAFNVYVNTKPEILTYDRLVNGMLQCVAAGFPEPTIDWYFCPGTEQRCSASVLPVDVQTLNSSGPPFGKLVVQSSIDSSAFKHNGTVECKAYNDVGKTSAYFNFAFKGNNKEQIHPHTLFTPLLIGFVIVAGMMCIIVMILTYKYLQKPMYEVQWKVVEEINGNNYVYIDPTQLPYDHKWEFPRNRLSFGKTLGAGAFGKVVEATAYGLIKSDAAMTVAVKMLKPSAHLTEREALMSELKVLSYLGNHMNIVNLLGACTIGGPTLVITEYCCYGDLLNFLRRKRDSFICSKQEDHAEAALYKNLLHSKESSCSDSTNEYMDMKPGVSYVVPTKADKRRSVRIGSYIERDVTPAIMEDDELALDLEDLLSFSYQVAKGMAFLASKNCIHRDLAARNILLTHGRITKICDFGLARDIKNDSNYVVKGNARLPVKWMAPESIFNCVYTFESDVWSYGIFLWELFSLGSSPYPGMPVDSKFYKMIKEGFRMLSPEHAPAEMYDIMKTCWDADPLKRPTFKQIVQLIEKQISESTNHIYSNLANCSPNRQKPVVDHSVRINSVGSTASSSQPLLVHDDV
T1 sequence (P30530 26-894): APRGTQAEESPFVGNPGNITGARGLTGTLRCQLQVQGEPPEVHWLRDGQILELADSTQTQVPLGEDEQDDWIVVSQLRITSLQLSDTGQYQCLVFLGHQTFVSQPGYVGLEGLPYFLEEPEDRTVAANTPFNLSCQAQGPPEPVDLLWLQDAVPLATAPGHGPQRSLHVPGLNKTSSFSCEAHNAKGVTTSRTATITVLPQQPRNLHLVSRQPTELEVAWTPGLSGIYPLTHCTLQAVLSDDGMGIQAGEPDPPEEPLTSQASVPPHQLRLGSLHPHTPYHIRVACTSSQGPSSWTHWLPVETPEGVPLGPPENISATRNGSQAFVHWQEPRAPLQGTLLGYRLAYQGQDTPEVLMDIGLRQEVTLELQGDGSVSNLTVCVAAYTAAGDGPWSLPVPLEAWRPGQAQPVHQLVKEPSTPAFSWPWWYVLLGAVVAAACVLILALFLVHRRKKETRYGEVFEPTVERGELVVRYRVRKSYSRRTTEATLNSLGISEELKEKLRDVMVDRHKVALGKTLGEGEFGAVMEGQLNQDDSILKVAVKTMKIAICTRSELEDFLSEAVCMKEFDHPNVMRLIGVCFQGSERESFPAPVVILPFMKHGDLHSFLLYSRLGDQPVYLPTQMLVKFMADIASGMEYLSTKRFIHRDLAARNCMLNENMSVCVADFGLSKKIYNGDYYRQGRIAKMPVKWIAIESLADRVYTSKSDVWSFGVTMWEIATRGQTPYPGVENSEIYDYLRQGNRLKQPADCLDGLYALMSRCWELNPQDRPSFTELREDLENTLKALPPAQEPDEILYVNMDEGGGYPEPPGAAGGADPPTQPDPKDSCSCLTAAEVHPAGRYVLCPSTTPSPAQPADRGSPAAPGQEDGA

Structure (SMILES): CCc1nc(C(N)=O)c(Nc2ccc(N3CCC(N4CCN(C)CC4)CC3)c(OC)c2)nc1NC1CCOCC1 [gilteritinib]
- inhibition at 0.001 µM (FLT3): > 50%
- inhibition at 0.001 µM (AXL): > 50%
- IC50 (c-KIT): 230 nM
- IC50 [1]: 2.1 nM
- IC50 [2]: 1.8 nM
- IC50 [3]: 22 nM
- IC50 [4]: 49 nM
- activity at 0.0001 µM (p-AKT; [8]): 65%
- activity at 0.001 µM (p-AKT; [9]): 48%
- activity at 0.01 µM (p-AKT; [10]): 9%
- activity at 0.0001 µM (p-ERK; [8]): 54%
- activity at 0.001 µM (p-ERK; [9]): 22%
- activity at 0.01 µM (p-ERK; [10]): 1%
- activity at 0.0001 µM (p-STAT5; [8]): 114%
- activity at 0.001 µM (p-STAT5; [9]): 23%
- activity at 0.01 µM (p-STAT5; [10]): 0%
- Growth inhibition of MV4–11 tumors (MV4–11 tumors; 1 mg/kg/day oral once daily): 63%
- Growth inhibition of MV4–11 tumors (MV4–11 tumors; 3 mg/kg/day oral once daily): 80%
- Tumor regression (MV4–11 tumors; 6 mg/kg/day oral once daily): 93%
- Mice with complete tumor regression (MV4–11 tumors; 6 mg/kg/day): Four of the six mice
- Tumor regression (MV4–11 tumors; 10 mg/kg/day oral once daily): 100%
- Mice with complete tumor regression (MV4–11 tumors; 10 mg/kg/day): all six mice
- Antitumor effect (tumor volume) ([5]; 10 mg/kg once-daily oral): showed antitumor efficacy
- Antitumor effect (tumor volume) ([5]; 30 mg/kg once-daily oral): induced tumor regression
- Antitumor effect (tumor volume) ([6]; 10 mg/kg once-daily oral): showed antitumor efficacy
- Antitumor effect (tumor volume) ([6]; 30 mg/kg once-daily oral): induced tumor regression
- Antitumor effect (tumor volume) ([7]; 10 mg/kg once-daily oral): showed antitumor efficacy
- Antitumor effect (tumor volume) ([7]; 30 mg/kg once-daily oral): induced tumor regression
